Results taken from PubChem BioAssay AID651581 (Sanford-Burnham Center for Chemical Genomics, 2012).
Activity calls are given as the source filed them. No rule for the calls is given here.

Tests used:
[1] = molecular target: Endothelial PAS domain-containing protein 1 (Homo sapiens) (UniProt Q99814); experiment: HIF-2a and HIF-1a reporter inhibition panel, dose response, selectivity assay for HIF-2a inhibitor project, cell-based, luminescence (AID 651581)
[2] = molecular target: Hypoxia-inducible factor 1-alpha (Homo sapiens) (UniProt Q16665); experiment: as above; settings: HIF-1a
Chain of Hypoxia-inducible factor 1-alpha (Homo sapiens) (Q16665 whole entry, looked up): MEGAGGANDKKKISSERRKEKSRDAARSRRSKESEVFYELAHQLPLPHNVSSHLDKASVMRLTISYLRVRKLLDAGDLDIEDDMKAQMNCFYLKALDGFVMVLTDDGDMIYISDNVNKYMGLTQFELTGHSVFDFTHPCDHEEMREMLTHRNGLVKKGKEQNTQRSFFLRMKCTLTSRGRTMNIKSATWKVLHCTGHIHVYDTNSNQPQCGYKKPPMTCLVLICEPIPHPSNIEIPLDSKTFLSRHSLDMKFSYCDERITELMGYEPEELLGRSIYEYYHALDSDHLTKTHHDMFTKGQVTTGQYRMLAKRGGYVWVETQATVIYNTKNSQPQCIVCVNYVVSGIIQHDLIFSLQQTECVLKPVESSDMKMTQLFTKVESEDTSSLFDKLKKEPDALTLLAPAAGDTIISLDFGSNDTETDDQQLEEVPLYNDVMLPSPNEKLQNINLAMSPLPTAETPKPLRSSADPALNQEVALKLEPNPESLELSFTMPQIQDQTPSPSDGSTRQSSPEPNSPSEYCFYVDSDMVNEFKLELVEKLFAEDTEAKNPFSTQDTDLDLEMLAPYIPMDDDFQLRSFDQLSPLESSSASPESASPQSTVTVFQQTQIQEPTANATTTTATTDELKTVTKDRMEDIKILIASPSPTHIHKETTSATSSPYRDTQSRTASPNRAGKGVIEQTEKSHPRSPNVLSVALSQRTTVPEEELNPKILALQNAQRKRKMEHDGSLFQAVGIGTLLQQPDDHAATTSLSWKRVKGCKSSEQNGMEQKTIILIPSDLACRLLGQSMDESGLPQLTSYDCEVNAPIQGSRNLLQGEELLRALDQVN

Row | SMILES | IC50 ([1]; HIF-2a PANC, mean of runs) | IC50 ([1]; HIF-2a PANC, run 1) [µM] | IC50 ([1]; HIF-2a PANC, run 2) [µM] | IC50 ([1]; HIF-2a, mean of runs) | IC50 ([1]; HIF-2a, run 1) [µM] | IC50 ([1]; HIF-2a, run 2) [µM] | IC50 ([2]; run 1) [µM] | IC50 ([2]; run 2) [µM] | IC50 ([2]; mean of runs)
1 | O=C(NCc1ccccc1)C(=O)Nc1cccc(C(=O)O)c1 | > 99 µM (inactive) | > 99 | > 99 | 9.97 µM | 9.98 | 9.95 | > 99 | > 99 | 
2 | CC(=O)c1ccc(NC(=O)c2cnn3ccccc23)cc1 | 18.4 µM | 20.3 | 16.6 | inactive | 11.7 | 9.93 | 12.9 | 20.6 | inactive
3 | Cc1cc(C)cc(C(=O)NC(=S)Nc2ccc(-c3cc4ccccc4oc3=O)cc2)c1 |  | > 99 | > 99 | > 99 µM (inactive) | > 99 | > 99 | > 99 | > 99 | > 99 µM (inactive)
4 | CC(=O)Nc1ccc(NC(=O)c2oc3cc(C)c(C)cc3c2C)cc1 |  | > 99 | 16.5 | 1.64 µM | 1.62 | 1.67 | 2.91 | 1.65 | inactive
5 | Cc1nc(SCCC(=O)O)c2cc(-c3ccccc3)sc2n1 | inactive | 1.02 | 1.53 | 0.212 µM | 0.196 | 0.228 | > 99 | 1.56 | 
6 | Cc1nc2cc(-c3ccccc3)nn2c(C)c1CCC(=O)N1CCN(c2ccccc2)CC1 | 1.59 µM | 1.41 | 1.77 | 1.05 µM | 0.978 | 1.13 | 8.3 | 7.99 | 8.15 µM
7 | O=C(Nc1ccc(NC(=S)NC(=O)c2ccco2)cc1)c1ccc(Br)cc1 | > 99 µM (inactive) | > 99 | > 99 | 1.02 µM | 1.18 | 0.871 | 0.639 | > 99 | 
8 | NC(=O)COC(=O)CCCSc1nc2ccccc2s1 |  | > 99 | 81.1 | 8.53 µM | 8.5 | 8.56 | 5.5 | 12.1 | inactive
9 | COc1ccc(OCc2cccc(C(=O)O)c2)cc1 |  | > 99 | < 30 | 0.781 µM | 0.76 | 0.802 | 19 | 33.7 | 26.3 µM
10 | N#CCC(=O)N/N=C\c1cccc(OC/C=C/c2ccccc2)c1 |  | > 99 | < 30 |  | < 30 | 8.63 | > 99 | < 30 | 
11 | COc1ccc(CNC(=O)c2nc(S(=O)(=O)Cc3ccccc3)ncc2Cl)cc1 | inactive | 29.8 | 31.1 | 8.83 µM | 8.77 | 8.9 | 28.1 | 26 | 27 µM
12 | Nc1ccc(-c2nnn(CC(=O)N3CCCCC3)n2)cc1 |  | > 99 | 33.3 | inactive | 18.3 | 17 | 15.7 | > 99 | 
13 | CC(C)(C)c1ccc(-c2noc(CCC(=O)Nc3cccnc3)n2)cc1 | < 0.3 µM | < 1 | < 0.3 | < 1 µM | < 1 | < 1 | 78.9 | 49.5 | 64.2 µM
14 | O=C(O)c1cccc(-c2nc3ccccc3[nH]2)c1 | > 99 µM (inactive) | > 99 | > 99 | inactive | 14.5 | 15.5 | > 99 | > 99 | 
15 | COC(=O)c1cccc(NC(=O)NC(=O)c2ccccc2Cl)c1 |  | 17.6 | > 99 | 7.56 µM | 7.45 | 7.66 | > 99 | > 99 | 
16 | N#Cc1ccccc1COc1ccc(/C=C/C(=O)O)cc1 | 0.92 µM | 1.53 | 0.311 | 0.391 µM | 0.37 | 0.412 | 1.56 | 1.12 | 1.34 µM
17 | CCOC(=O)Cc1csc(NC(=S)NC(=O)c2ccc(F)cc2)n1 |  | > 99 | 13.5 | 1.96 µM | 1.92 | 2.01 | 13.5 | 12.4 | 12.9 µM
18 | CCOC(=O)Cn1cc(/C=C/[N+](=O)[O-])c2ccccc21 | > 99 µM (inactive) | > 99 | > 99 | inactive | 13.5 | 13.2 | 17.7 | 25 | inactive
19 | COc1cc(/C=N/O)ccc1OCc1ccc(C(=O)O)cc1 | > 99 µM (inactive) | > 99 | > 99 | 4.29 µM | 5.58 | 3 | > 99 | > 99 | 
20 | Cc1ccc(NC(=S)NNc2ncc(C(F)(F)F)cc2Cl)cc1 | 1.29 µM | 1.66 | 0.928 | 4.58 µM | 4.66 | 4.49 | 20.4 | 33.5 | 27 µM
21 | O=C1C=C(c2ccc(Cl)cc2)C(=O)N1Nc1ccccc1 | inactive | 29.9 | 75.9 | 5.66 µM | 5.69 | 5.63 | 22.8 | 28.9 | 25.8 µM
22 | O=C(OCC(F)(F)F)c1cccc(COc2ccc3ccccc3c2)c1 |  | > 99 | < 30 | 2.86 µM | 2.92 | 2.79 | > 99 | > 99 | 
23 | O=C(O)c1ccc(N/N=C/c2ccc3ncccc3c2)cc1 |  | > 99 | 19.3 |  | < 30 | > 99 | 18.8 | 16.8 | inactive
24 | O=Nc1c(O)ccc2cc(S(=O)(=O)O)ccc12 | inactive | 25.5 | 51.1 | 8.77 µM | 8.62 | 8.91 | 3.06 | > 99 | 
25 | Cc1nnnn1/C(=C\c1ccccc1)C(=O)OCC(=O)Nc1ccc(Cl)cc1F | 19.9 µM | 19.3 | 20.6 | 8.16 µM | 8.44 | 7.88 | 16 | 21.2 | inactive
26 | COc1ccc(/C=N\n2nnc3ccccc32)cc1 | 7.03 µM | 7.48 | 6.58 | < 30 µM (inactive) | < 30 | < 30 | < 30 | < 30 | < 30 µM (inactive)
27 | CCOC(=O)c1cccc(NC(=O)Nc2ccc(OCC)cc2)c1 |  | < 30 | 32.7 |  | 11.2 | < 10 | > 99 | > 99 | 
